Test system: Huh7 cells containing HCV replicons with an integrated luciferase reporter gene
Assay: HCV Replicon Assay (luciferase reporter)
Type: cell-based
Settings: Hepatitis C virus, Huh-7, 48 h, read-out: EC50 nM
Description: Huh7 cells containing HCV replicons with an integrated luciferase reporter gene are maintained at 37° C. in 5% CO2 in Dulbecco's modified Eagle's medium (DMEM; Mediatech, Herndon, Va.) containing 10% heat-inactivated fetal bovine serum (FBS; Mediatech, Herndon, Va.), 2 mM L-glutamine (Cambrex Bioscience, Walkersville, Md.), 1% non essential amino acids (Lonza, Walkersville, Md.), 50 IU/mL penicillin (Mediatech, Herndon, Va.), […] streptomycin (Mediatech, Herndon, Va.) and 0.5 mg/mL G418 (Promega, Madison, Wis.). Cells are sub-divided 1:3 or 4 every 2-3 days.
24 h prior to the assay, Huh7 cells containing sub-genomic HCV replicons are collected, counted, and plated in Nunclon 96-well tissue culture plates (ThermoFisher, Rochester, N.Y.) at 5000 cells/well in […] standard maintenance medium (above) and incubated in the conditions above. To initiate the assay, culture medium is removed, and replaced with […] maintenance media lacking G418. Test compounds are serially diluted three-fold in dimethyl sulfoxide (DMSO) in two duplicate rows for each EC50 determination. These compound solutions are diluted ten-fold in DMEM lacking serum and G418. […] of these compound solutions in media are added to duplicate tissue culture plates. The final volume is 100 μL with a DMSO concentration of 1%. Compound concentrations are adjusted to appropriately define a dose response curve. Typical dilution series range from […] to 1.69 nM final concentrations to 1 nM to 16.9 fM final. Plates are incubated at 37° C. for approximately 48 hr.
Following incubation, media is removed from one of the two duplicate plates and replicon-reporter luciferase activity is measured using a Bright-Glo luciferase assay kit (Promega, Madison, Wis.) according to manufacturer's instructions. Semi-log plots of luciferase activity versus the logarithm of compound concentration are fit to a 4-parameter logistic function using XLfit software (IDBS Inc., Guildford, UK) to determine EC50.

Compound | EC50 [nM]
COC(=O)N[C@H](C(=O)N1CCC[C@H]1C(=O)Nc1ccc2cc(-c3ccccc3)ccc2c1)C(C)C [Compound 502] | > 100

Same assay, conditions: Hepatitis C virus, Huh-7; Huh7 sub-genomic HCV replicon, luciferase activity, approximately 48 hr incubation; read-out: EC50

Compound | EC50 [nM]
COC(=O)N[C@H](C(=O)N1CCC[C@H]1c1nc(-c2ccc(-c3ccc(-c4c[nH]c([C@@H]5CCCN5C(=O)[C@@H](NC(=O)OC)c5cccc(F)c5)n4)cc3)cc2)c[nH]1)c1cccc(F)c1 [Compound 424] | < 10
COC(=O)N[C@H](C(=O)N1CCC[C@H]1c1nc(-c2ccccc2)c[nH]1)C(C)C [Compound 504] | > 100
COC(=O)N[C@H]1CC[C@H]2CC[C@@H](c3nc(-c4ccc(-c5ccc(-c6c[nH]c([C@@H]7CCCN7C(=O)[C@@H](NC(=O)OC)C(C)C)n6)cc5)cc4)c[nH]3)N2C1=O [Compound 803] | < 10
COC(=O)N[C@H](C(=O)N1CCC[C@H]1c1nc(-c2ccc(-c3ccc(-c4c[nH]c([C@@H]5CCCN5C(=O)[C@@H](NC(=O)OC)C(C)C)n4)c4c3CCC4)c3c2CCC3)c[nH]1)C(C)C [Compound 601] | < 10
COC(=O)N[C@H](C(=O)N1CCC[C@H]1c1nc(-c2ccc(-c3ccc(-c4c[nH]c([C@@H]5CCCN5C(=O)[C@@H](NC(=O)OC)C(C)C)n4)c4ocnc34)c3ncoc23)c[nH]1)C(C)C [Compound 602] | < 10
COC(=O)N[C@H](C(=O)N1CCC[C@H]1C(=O)NCc1ccc(-c2ccc(-c3c[nH]c([C@@H]4CCCN4C(=O)[C@@H](NC(=O)OC)C(C)C)n3)cc2)cc1)C(C)C [Compound 506] | < 10
COC(=O)N[C@H]1CC[C@H]2CC[C@@H](C(=O)Nc3ccc(/C=C/c4ccc(NC(=O)[C@@H]5CC[C@@H]6CC[C@H](NC(=O)OC)C(=O)N65)cc4)cc3)N2C1=O [Compound 802] | > 100
COC(=O)N[C@H](C(=O)N1CCC[C@H]1c1nc2ccc(-c3ccc(-c4ccc5nc([C@@H]6CCCN6C(=O)[C@@H](NC(=O)OC)c6ccc(F)cc6)[nH]c5c4)cc3)cc2[nH]1)c1ccc(F)cc1 [Compound 422] | < 10
COC(=O)N[C@H](C(=O)N1CCC[C@@]1(C)c1nc(-c2ccc(-c3ccc(-c4c[nH]c([C@]5(C)CCCN5C(=O)[C@@H](NC(=O)OC)C(C)C)n4)c4c3CCC4)c3c2CCC3)c[nH]1)C(C)C [Compound 604] | < 10
COC(=O)NC(C(=O)N1CCC[C@H]1c1nc(-c2ccc(-c3ccc(-c4c[nH]c(N5CCCN5C(=O)[C@@H](NC(=O)OC)C(C)C)n4)c4scnc34)c3ncsc23)c[nH]1)C(C)C (stereo partly drawn) [Compound 603] | < 10
COC(=O)N[C@H]1CC[C@H]2CC[C@@H](c3nc(-c4ccc(-c5ccc(-c6c[nH]c([C@@H]7CC[C@@H]8CC[C@H](NC(=O)OC)C(=O)N87)n6)cc5)cc4)c[nH]3)N2C1=O [Compound 801] | > 100
COC(=O)N[C@H]1CC[C@@H]2CC[C@@H](c3nc(-c4ccc(-c5ccc(-c6c[nH]c([C@@H]7CCCN7C(=O)[C@@H](NC(=O)OC)C(C)C)n6)cc5)cc4)c[nH]3)N2C1=O [Compound 804] | < 10
COC(=O)N[C@H](C(=O)N1CCC[C@H]1c1nc(-c2ccc(-c3ccc(-c4c[nH]c([C@@H]5CCCN5C(=O)[C@@H](NC(=O)OC)c5ccc(F)cc5)n4)cc3)cc2)c[nH]1)c1ccc(F)cc1 [Compound 421] | < 10
COC(=O)N[C@H](C(=O)N1CCC[C@H]1c1nc(-c2ccc(-c3ccc(-c4c[nH]c([C@@H]5CCCN5C(=O)[C@@H](NC(=O)OC)C(C(F)(F)F)C(F)(F)F)n4)cc3)cc2)c[nH]1)C(C(F)(F)F)C(F)(F)F [Compound 423] | < 10
COC(=O)N[C@H](C(=O)N1CCC[C@H]1C(=O)OCC(=O)c1ccc(N2CCN(Cc3ccccc3)CC2)cc1)C(C)C [Compound 501] | > 100
COC(=O)N[C@H](C(=O)N1CCC[C@H]1c1nc(-c2ccc(-c3ccc(-c4c[nH]c([C@]5(C)CCCN5C(=O)[C@@H](NC(=O)OC)C(C)C)n4)c4c3CCC4)c3c2CCC3)c[nH]1)C(C)C [Compound 605] | < 10
COc1ccc2cc(-c3c[nH]c([C@@H]4CCCN4C(=O)OC(C)(C)C)n3)ccc2c1 [Compound 505] | > 100
COC(=O)N[C@H]1CC[C@H]2CC[C@@H](c3nc(-c4ccc(-c5ccc(-c6c[nH]c([C@]7(C)CCCN7C(=O)[C@@H](NC(=O)OC)C(C)C)n6)cc5)cc4)c[nH]3)N2C1=O [Compound 805] | 10 to 100
COC(=O)N[C@H]1CCC[C@H]2CC[C@@H](c3nc(-c4ccc(-c5ccc(-c6c[nH]c([C@@H]7CCCN7C(=O)[C@@H](NC(=O)OC)C(C)C)n6)cc5)cc4)c[nH]3)N2C1=O [Compound 807] | < 10
COC(=O)N[C@H]1CCC[C@@H]2CC[C@@H](c3nc(-c4ccc(-c5ccc(-c6c[nH]c([C@@H]7CCCC7C(=O)[C@@H](NC(=O)OC)C(C)C)n6)cc5)cc4)c[nH]3)N2C1=O (stereo partly drawn) [Compound 806] | < 10

From patent US20110312996A1, “NOVEL INHIBITORS OF HEPATITIS C VIRUS REPLICATION” (priority 2010, published 2011)
